Laboratory results from ChEMBL document CHEMBL1201862, “PubChem BioAssay data set” (2004).
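Method: 48-hour compound exposure of cells in 96-well plates, five concentrations, linear interpolation of endpoints. Abbreviation: GI50, concentration required for 50% inhibition of growth.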 Activity calls are given as the source filed them. Rule as the data show it: active = GI50 up to about 1.1 µM and inactive = higher.

Experiments:
Assay in all cases: inhibition of tumour cell growth, NCI panel, 48 h
[1] = test system: DLD-1
[2] = test system: HOP-92
[3] = test system: TK-10
[4] = test system: SNB-19
[5] = test system: Malme-3M
[6] = test system: RXF 393
[7] = test system: IGROV-1
[8] = test system: UO-31
[9] = test system: A549
[10] = test system: LXFL 529
[11] = test system: SNB-75
[12] = test system: KM12
[13] = test system: CAKI-1
[14] = test system: SNB-78
[15] = test system: HCT-116
[16] = test system: SK-OV-3
[17] = test system: SW-620
[18] = test system: RXF 631
[19] = test system: OVCAR-8
[20] = test system: LOX IMVI
[21] = test system: HOP-18
[22] = test system: SR
[23] = test system: RPMI-8226
[24] = test system: UACC-257
[25] = test system: NCI-H460
[26] = test system: SF-295
[27] = test system: OVCAR-3
[28] = test system: SK-MEL-5
[29] = test system: CCRF-CEM
[30] = test system: ACHN
[31] = test system: HCT-15
[32] = test system: OVCAR-4
[33] = test system: HL-60
[34] = test system: KM-20L2
[35] = test system: 786-0
[36] = test system: K562
[37] = test system: NCI-H226
[38] = test system: SF-539
[39] = test system: HOP-62
[40] = test system: SN12C
[41] = test system: SF-268
[42] = test system: A498
[43] = test system: NCI-H522
[44] = test system: HT-29
[45] = test system: M14
[46] = test system: M19-MEL
[47] = test system: COLO 205
[48] = test system: EKVX
[49] = test system: UACC-62
[50] = test system: SK-MEL-2
[51] = test system: SK-MEL-28
[52] = test system: DMS-114
[53] = test system: OVCAR-5
[54] = test system: DMS-273
[55] = test system: U-251
[56] = test system: HCC 2998
[57] = test system: MOLT-4
[58] = test system: XF498
[59] = test system: NCI-H23

## Nc1nc(O)c2c(ncn2CC(O)CO)n1 (centres undefined)
[1]
  GI50: > 100 µM (inactive)
[2]
  GI50: > 100 µM (inactive)
[3]
  GI50: > 100 µM (inactive)
[4]
  GI50: > 100 µM (inactive)
[5]
  GI50: > 100 µM (inactive)
[6]
  GI50: > 100 µM (inactive)
[7]
  GI50: > 100 µM (inactive)
[8]
  GI50: > 100 µM (inactive)
[9]
  GI50: > 100 µM (inactive)
[10]
  GI50: > 100 µM (inactive)
[11]
  GI50: > 100 µM (inactive)
[12]
  GI50: > 100 µM (inactive)
[13]
  GI50: > 100 µM (inactive)
[14]
  GI50: > 100 µM (inactive)
[15]
  GI50: > 100 µM (inactive)
[16]
  GI50: > 100 µM (inactive)
[17]
  GI50: > 100 µM (inactive)
[18]
  GI50: > 100 µM (inactive)
[19]
  GI50: > 100 µM (inactive)
[20]
  GI50: > 100 µM (inactive)
[21]
  GI50: > 100 µM (inactive)
[22]
  GI50: > 100 µM (inactive)
[23]
  GI50: > 100 µM (inactive)
[24]
  GI50: > 100 µM (inactive)
[25]
  GI50: > 100 µM (inactive)
[26]
  GI50: > 100 µM (inactive)
[27]
  GI50: > 100 µM (inactive)
[28]
  GI50: > 100 µM (inactive)
[29]
  GI50: > 100 µM (inactive)
[30]
  GI50: > 100 µM (inactive)
[31]
  GI50: > 100 µM
[32]
  GI50: > 100 µM (inactive)
[33]
  GI50: > 100 µM (inactive)
[34]
  GI50: > 100 µM (inactive)
[35]
  GI50: > 100 µM (inactive)
[36]
  GI50: > 100 µM (inactive)
[37]
  GI50: > 100 µM (inactive)
[38]
  GI50: > 100 µM (inactive)
[39]
  GI50: > 100 µM (inactive)
[40]
  GI50: > 100 µM (inactive)
[41]
  GI50: > 100 µM (inactive)
[42]
  GI50: > 100 µM (inactive)
[43]
  GI50: > 100 µM (inactive)
[44]
  GI50: > 100 µM (inactive)
[45]
  GI50: > 100 µM (inactive)
[46]
  GI50: > 100 µM (inactive)
[47]
  GI50: > 100 µM (inactive)
[48]
  GI50: > 100 µM (inactive)
[49]
  GI50: > 100 µM (inactive)
[50]
  GI50: > 100 µM (inactive)
[51]
  GI50: > 100 µM (inactive)
[52]
  GI50: > 100 µM (inactive)
[53]
  GI50: > 100 µM (inactive)
[54]
  GI50: > 100 µM (inactive)
[55]
  GI50: > 100 µM (inactive)

## Cn1c(=O)ccc2cc(C(=O)c3ccccc3)ccc21
[1]
  GI50: > 100 µM (inactive)
[2]
  GI50: 34.8 µM (inactive)
[56]
  GI50: > 100 µM (inactive)
[3]
  GI50: 35.2 µM (inactive)
[4]
  GI50: 68.1 µM (inactive)
[5]
  GI50: > 100 µM (inactive)
[57]
  GI50: 69.7 µM (inactive)
[7]
  GI50: 24.7 µM (inactive)
[9]
  GI50: 71.1 µM (inactive)
[10]
  GI50: 45.8 µM (inactive)
[11]
  GI50: 12.3 µM (inactive)
[12]
  GI50: > 100 µM (inactive)
[13]
  GI50: 39.4 µM (inactive)
[58]
  GI50: 16.7 µM (inactive)
[15]
  GI50: 73.5 µM (inactive)
[16]
  GI50: > 100 µM (inactive)
[17]
  GI50: > 100 µM (inactive)
[18]
  GI50: 64.3 µM (inactive)
[19]
  GI50: 58.6 µM (inactive)
[20]
  GI50: 57.3 µM (inactive)
[21]
  GI50: 36.6 µM (inactive)
[23]
  GI50: 47.5 µM (inactive)
[25]
  GI50: > 100 µM (inactive)
[26]
  GI50: 79.3 µM (inactive)
[59]
  GI50: 55 µM (inactive)
[27]
  GI50: 44.4 µM (inactive)
[28]
  GI50: 22.8 µM (inactive)
[29]
  GI50: 69.7 µM (inactive)
[30]
  GI50: 36.8 µM (inactive)
[31]
  GI50: 53.3 µM
[32]
  GI50: 46.9 µM (inactive)
[33]
  GI50: 23.6 µM (inactive)
[34]
  GI50: 73.5 µM (inactive)
[35]
  GI50: 83.2 µM (inactive)
[36]
  GI50: 44.1 µM (inactive)
[37]
  GI50: 21.2 µM (inactive)
[38]
  GI50: 42.3 µM (inactive)
[39]
  GI50: > 100 µM (inactive)
[40]
  GI50: 46.6 µM (inactive)
[41]
  GI50: 76.6 µM (inactive)
[42]
  GI50: 32.6 µM (inactive)
[43]
  GI50: 20.4 µM (inactive)
[44]
  GI50: 46 µM (inactive)
[45]
  GI50: > 100 µM (inactive)
[46]
  GI50: 55.3 µM (inactive)
[47]
  GI50: > 100 µM (inactive)
[48]
  GI50: 34.2 µM (inactive)
[49]
  GI50: 14.6 µM (inactive)
[50]
  GI50: > 100 µM (inactive)
[51]
  GI50: > 100 µM (inactive)
[52]
  GI50: 22.1 µM (inactive)
[53]
  GI50: > 100 µM (inactive)
[54]
  GI50: 35.3 µM (inactive)
[55]
  GI50: 84.9 µM (inactive)
